# System: human mutated 5HT2A receptor, AP-3
# Test: Receptor-mediated inositol phosphate (IP3) accumulation, AP-3
# Assay type: cell-based
# Settings: 10 μM test compound, triplicate; control without test compound
# Procedure: On day one, 1×10^7 293 cells per 150 mm plate were plated out. On day two, two reaction tubes were prepared (the proportions to follow for each tube are per plate): tube A was prepared by mixing 20 μg DNA (e.g., pCMV vector; pCMV vector AP-1 cDNA, etc.) in 1.2 ml serum free DMEM (Irvine Scientific, Irvine, Calif.); tube B was prepared by mixing 120 μl lipofectamine (Gibco BRL) in 1.2 ml serum free DMEM. Tubes A and B were then admixed by inversions (several times), followed by incubation at room temperature for 30-45 min. The admixture is referred to as the "transfection mixture". Plated 293 cells were washed with 1×PBS, followed by addition of 10 ml serum free DMEM. 2.4 ml of the transfection mixture was then added to the cells, followed by incubation for 4 hrs at 37° C./5% CO2. On day 3, cells were trypsinized and counted, followed by plating of 1×10^6 cells/well (poly D-lysine treated 12-well plates). Cells were permitted to adhere to the wells, followed by one wash with 1×PBS. Thereafter, 0.5 μCi ^3 H-inositol in 1 ml inositol-free DMEM was added per well. Protocol B.
# On day 4, the cells were washed with 0.5 ml PBS and then 0.45 ml of assay medium was added containing inositol-free/serum free media, 10 μM pargyline, 10 mM lithium chloride, or 0.4 ml of assay medium and 50 ul of 10× ketanserin (ket) to a final concentration of 10 μM. The cells were then incubated for 30 minutes at 37° C. Then the cells were washed with 0.5 ml PBS and 200 ul of fresh/ice cold stop solution (1M KOH; 18 mM Na-borate; 3.8 mM EDTA) was added/well. The solution was kept on ice for 5-10 minutes or until the cells were lysed and then neutralized by 200 μl of fresh/ice cold neutralization sol. (7.5% HCL). The lysate was then transferred into 1.5 ml microcentrifuge tubes and 1 ml of chloroform/methanol (1:2) was added/tube. The solution was vortexed for 15 seconds and the upper phase was applied to a Biorad AG1-X8 anion exchange resin (100-200 mesh). The resin was washed with water and 0.9 ml of the upper phase was loaded onto the column. The column was washed with 10 mls of 5 mM myo-inositol and 10 ml of 5 mM Na-borate/60 mM Na-formate. The inositol trisphosphates were eluted into scintillation vials containing 10 ml of scintillation cocktail with 2 ml of 0.1 M formic acid/1 M ammonium formate. The columns were regenerated by washing with 10 ml of 0.1 M formic acid/3M ammonium formate and rinsed twice with dd H2 O and stored at room temperature in water.
# Candidate compound identified in the assays of Examples 9a-9c were then evaluated for inositol phosphate accumulation, following the protocol of Example 5 ([…] expressing human mutated 5HT2A receptor, AP-3), modified as follows: tube A was prepared by mixing 16 μg DNA (e.g., pCMV vector; pCMV vector AP-1 cDNA, etc.) in 1.0 ml serum free DMEM (Irvine Scientific, Irvine, Calif.); tube B was prepared by mixing 60 μl lipofectamine (Gibco BRL) in 1.0 ml serum free DMEM. Tubes A and B were then admixed by inversions (several times), followed by incubation at room temperature for 30 min. The admixture is referred to as the "transfection mixture". Plated 293 cells were washed with 10 ml Serum Free DMEM, followed by addition of 11 ml Serum Free DMEM. 2.0 ml of the transfection mixture was then added to the cells, followed by incubation for 5 hrs at 37° C./5% CO2. On day 3, cells were trypsinized and counted, followed by plating of 1×10^6 cells/well (12-well plates). Cells were permitted to adhere to the wells for 8 hrs, followed by one wash with 1×PBS. Thereafter, 0.5 μCi ^3 H-inositol in 1 ml inositol-free DMEM was added per well.
# On day 4, the cells were washed with 1.5 ml PBS and then 0.9 ml of assay medium was added containing inositol-free/serum free media, 10 μM pargyline, 10 mM lithium chloride, for 5 min in 37° C./5% CO2 followed by 100 μl addition of candidate compound diluted in the same material. The cells were then incubated for 120 minutes at 37° C. […]
row,SMILES,IP3 % of Control
1,"CSc1ccc(NC(=O)Nc2cccc(-c3nn(C)cc3Br)c2)cc1 [Compound 116079, N-[3-(4-bromo-1-methylpyrazol-3-yl)phenyl][(4-methylthiophenyl)amino]carboxamide]",16%
2,"Cn1cc(Br)c(-c2cccc(NC(=O)Nc3ccccc3OC(F)(F)F)c2)n1 [Compound 116087, {[3-(4-bromo-1-methylpyrazol-3-yl)phenyl]amino}-N-[2-(trifluoromethoxy)phenyl]carboxamide]",11%
3,"Cn1cc(Br)c(-c2cccc(NC(=O)Nc3ccccc3[N+](=O)[O-])c2)n1 [Compound 116089, {[3-(4-bromo-1-methylpyrazol-3-yl)phenyl]amino}-N-(2-nitrophenyl)carboxamide]",27%
4,"COc1ccc(NC(=O)Nc2cccc(-c3nn(C)cc3Br)c2)cc1 [Compound 116091, {[3-(4-bromo-1-methylpyrazol-3-yl)phenyl]amino}-N-(4-methoxyphenyl)carboxamide]",12%
5,"Cc1ccccc1NC(=O)Nc1cccc(-c2nn(C)cc2Br)c1 [Compound 116092, {[3-(4-bromo-1-methylpyrazol-3-yl)phenyl]amino}-N-(2-methylphenyl)carboxamide]",32%
6,"Cn1cc(Br)c(-c2cccc(NC(=O)Nc3ccc(C(F)(F)F)cc3)c2)n1 [Compound 116097, {[3-(4-bromo-1-methylpyrazol-3-yl)phenyl]amino}-N-[4-(trifluoromethyl)phenyl]carboxamide]",11%
7,"Cn1cc(Br)c(-c2cccc(NC(=O)Nc3cccc(Cl)c3)c2)n1 [Compound 116105, {[3-(4-bromo-1-methylpyrazol-3-yl)phenyl]amino}-N-(3-chlorophenyl)carboxamide]",11%
8,"Cn1cc(Br)c(-c2cccc(NC(=O)Nc3ccccc3Cl)c2)n1 [Compound 116108, {[3-(4-bromo-1-methylpyrazol-3-yl)phenyl]amino}-N-(2-chlorophenyl)carboxamide]",6%
9,"CC(C)c1ccc(NC(=O)Nc2cccc(-c3nn(C)cc3Br)c2)cc1 [Compound 116110, {[3-(4-bromo-1-methylpyrazol-3-yl)phenyl]amino}-N-[4-(methylethyl)phenyl]carboxamide]",7%
10,"COc1cccc(NC(=O)Nc2cccc(-c3nn(C)cc3Br)c2)c1 [Compound 116111, {[3-(4-bromo-1-methylpyrazol-3-yl)phenyl]amino}-N-(3-methoxyphenyl)carboxamide]",7%
11,"Cc1cccc(NC(=O)Nc2cccc(-c3nn(C)cc3Br)c2)c1 [Compound 116112, {[3-(4-bromo-1-methylpyrazol-3-yl)phenyl]amino}-N-(3-methylphenyl)carboxamide]",14%
12,"Cn1cc(Br)c(-c2cccc(NC(=O)Nc3ccc(C(C)(C)C)cc3)c2)n1 [Compound 116119, N-[4-(tert-butyl)phenyl]{[3-(4-bromo-1-methylpyrazol-3-yl)phenyl]amino}carboxamide]",17%
13,"CN(C)c1ccc(NC(=O)Nc2cccc(-c3nn(C)cc3Br)c2)cc1 [Compound 116122, N-[4-(dimethylamino)phenyl]{[3-(4-bromo-1-methylpyrazol-3-yl)phenyl]amino}carboxamide]",9%
14,"Cc1c(Cl)cc(NC(=O)Nc2cccc(-c3nn(C)cc3Br)c2)cc1Cl [Compound 116138, N-(3,5-dichloro-4-methylphenyl){[3-(4-bromo-1-methylpyrazol-3-yl)phenyl]amino}carboxamide]",23%
15,"Cn1cc(Br)c(-c2cccc(NC(=O)Nc3ccc(SC(F)(F)F)cc3)c2)n1 [Compound 116139, {[3-(4-bromo-1-methylpyrazol-3-yl)phenyl]amino}-N-[4-(trifluoromethylthio)phenyl]carboxamide]",12%
16,"Cn1cc(Br)c(-c2cccc(NC(=O)Nc3ccccc3F)c2)n1 [Compound 116144, {[3-(4-bromo-1-methylpyrazol-3-yl)phenyl]amino}-N-(2-fluorophenyl)carboxamide]",12%
17,"Cn1cc(Br)c(-c2cccc(NC(=O)Nc3ccccc3C(N)=O)c2)n1 [Compound 116145, 2-({[3-(4-bromo-1-methylpyrazol-3-yl)phenyl]amino}carbonylamino)benzamide]",31%
18,"Cn1cc(Br)c(-c2cccc(NC(=O)Nc3ccc(C#N)cc3)c2)n1 [Compound 116147, {[3-(4-bromo-1-methylpyrazol-3-yl)phenyl]amino}-N-(4-cyanophenyl)carboxamide]",12%
19,"Cn1cc(Br)c(-c2cccc(NC(=O)Nc3ccccc3C#N)c2)n1 [Compound 116148, {[3-(4-bromo-1-methylpyrazol-3-yl)phenyl]amino}-N-(2-cyanophenyl)carboxamide]",30%

# Same assay, conditions: AP-3; Example 10
row,SMILES,IC50
1,"Cn1cc(Br)c(-c2cccc(NC(=O)Nc3ccc(OC(F)(F)F)cc3)c2)n1 [Compound 103487, N-[3-(4-bromo-1-methylpyrazol-3-yl)phenyl][{(4-trifluoromethoxy)phenyl}amino]carboxamide]",90 nM

# System: not listed separately
# Test: Bar catalepsy test in rats (extrapyramidal side effect analysis)
# Assay type: in vivo, rat (male Sprague-Dawley)
# Settings: 0.8 mg/kg
SMILES,induction of catalepsy,time spent on the bar
"O=C(CCCN1CCC(O)(c2ccc(Cl)cc2)CC1)c1ccc(F)cc1 [haloperidol, reference compound]",induces catalepsy in rats,significant increase in time spent on the bar

# Target: T1, endogenous human 5-HT2C receptor (Homo sapiens, UniProt P28335)
# T1 sequence (P28335 33-458): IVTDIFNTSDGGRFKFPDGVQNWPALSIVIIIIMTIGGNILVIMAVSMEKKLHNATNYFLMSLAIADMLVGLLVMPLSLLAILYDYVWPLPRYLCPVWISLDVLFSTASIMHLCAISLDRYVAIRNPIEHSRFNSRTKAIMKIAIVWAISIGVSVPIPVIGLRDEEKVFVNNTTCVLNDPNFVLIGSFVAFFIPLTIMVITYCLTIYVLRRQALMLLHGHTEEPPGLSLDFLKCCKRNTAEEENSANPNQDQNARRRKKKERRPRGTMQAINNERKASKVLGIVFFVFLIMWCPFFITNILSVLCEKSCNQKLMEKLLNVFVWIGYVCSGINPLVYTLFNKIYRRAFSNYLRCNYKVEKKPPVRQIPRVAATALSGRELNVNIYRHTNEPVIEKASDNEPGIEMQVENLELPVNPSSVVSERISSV
# Test: not given
# Settings: 30 μM mianserin, data not shown
row,SMILES,inhibition of serotonin-stimulated [35S]GTPγS binding
1,CN1CCN2c3ccccc3Cc3ccccc3C2C1 (stereo not shown) [mianserin],completely inhibited

# Same assay, conditions: data not shown
row,SMILES,effect on serotonin response of [35S]GTPγS binding
1,CN1CCN2c3ccccc3Cc3ccccc3C2C1 (stereo not shown) [mianserin],inhibits this response

# Same assay, conditions: no agonist, data not shown
row,SMILES,effect on basal constitutive binding of [35S]GTPγS
1,CN1CCN2c3ccccc3Cc3ccccc3C2C1 (stereo not shown) [mianserin],partial inverse agonist

# Source: patent publication US6150393A (priority 1999, dated 2000)
